# Patent US10188633B2, “Identification of small molecules that facilitate therapeutic exon skipping” (The Regents of the University of California, priority 2011, dated 2019)
# Columns and labels:
# [1] = tested on: mdx mice; details: mouse, in vivo; cited from earlier work
# [2] = tested on: mdx mice; assay: Systemic (intravenous) PMOE23 with intraperitoneal dantrolene in mdx mice, exon 23 skipping and dystrophin in multiple muscles; assay type: in vivo, mouse
# Method: A systemic dose of 100 mg/kg or sub-optimal 10 mg/kg of morpholino M23D (+07-18) was administered by tail vein injection on Day 1. From Day 2-7 Dantrolene was administered intraperitoneally at a dose of 10 mg/kg/day in two divided doses. On Day 8 multiple muscles were harvested for analysis. (A) DMD exon 23 skipping was assessed as in FIG. 3. Skip/full-length mRNA ratio data were combined for all mice and for all initial muscle groups tested (quadricep, gastrocnemius, tibialis anterior and diaphragm). (B) Dystrophin protein was assessed by Western blot (Mandys8) quantitative densitometry for all muscle groups and individual mice (quadricep, gastrocnemius, tibialis anterior and diaphragm). (C) Quantitative immunohistochemistry is plotted as arbitrary units normalized to surface area for each section for all muscle groups and mice using one whole muscle cross section per animal per muscle. […] (E) Immunostaining of serial sections of treated mdx quadricep detects sarcolemmal localization of dystrophin (MANDYS8), alpha-sarcoglycan (NCL-a-sarc) and beta-dystroglycan (NCL-b-DG). […] Error bars in A-C represent the standard deviation among mice and muscles in each group (n=3 animals or n=12 total observations in saline+dantrolene and 100 mg/kg AO+DMSO; n=4 animals or n=16 observations in 10 mg/kg AO with Dantrolene or DMSO).
# This enabled us to assess whether dantrolene in combination with systemic morpholino PMOE23 could enhance Dmd exon 23 skipping and induce dystrophin protein expression in multiple skeletal muscles. A single intravenous dose of 100 mg/kg PMOE23 was used as a positive control. A single intravenous dose of 10 mg/kg AO was used as a sub-optimal dose alone or in combination with twice daily dosing of 10 mg/kg/day of dantrolene intraperitoneally for the subsequent 6 days [7, 27] (n=3 in control groups and n=4 in experimental groups; Table 5).
# Multiple skeletal muscles were harvested for analysis on day 7 including the quadriceps, gastrocnemius, tibialis anterior, diaphragm, triceps and heart. Muscles were assessed for: 1) increased amounts of skipped Dmd exon 23 mRNA species 2) Dystrophin protein rescue by Western blot 3) Dystrophin protein expression by quantitative immunostain, 4) appropriate subcellular localization, and 5) restoration of other components of the dystroglycan complex to the sarcolemmal membrane. To determine if dantrolene enhanced Dmd exon 23 skipping, the quantitative taqman assay was performed on RNA from each skeletal muscle.
# RNA was isolated from snap frozen skeletal muscle using the QIAGEN RNAeasy Fibrous Tissue Kit.
# [3] = tested on: mdx mice; assay: Intramuscular PMOE23 with systemic dantrolene in mdx mice, dystrophin in tibialis anterior; assay type: in vivo, mouse
# Method: One dose of either 10 ug or 2 ug of morpholino M23D in 25 ul PBS was injected into the tibialis anterior (TA) of 6 week old mdx mice on day 1 (n=3 per group). Dantrolene was administered by intraperitoneal injection at either 10 or 20 mg/kg/day for 9 days in a volume of 200 ul every 12 hours. Dantrolene was solubilized in 20% DMSO in normal saline. TA muscle was harvested on Day 11 and immediately frozen in Optimal Cutting Temperature compound (O.C.T.) embedding medium. Serial sections along the TA with intervals 800 microns apart were processed to perform assessments within the TA region with maximal AO delivery. […] (A) For Western blot analysis, half of each of the 4 middle intervals were pooled. Dystrophin protein was detected using MANDYS8 (exons 31 and 32) antibody. Control C57 was loaded at 5 ug/well, and 50 ug/well was loaded for other mdx samples. (B) Western blot was quantified by densitometry and plotted as arbitrary densitometry units normalized to vinculin loading control. […] (D) Data from whole muscle cross sections from C were quantified as total fluorescence, without inclusion of edges with artifactual staining, normalized to surface area scanned. […] Images were analyzed using Ariol SL-50 (Applied Imaging Corp., San Jose, Calif.). […]
# Total fluorescence was quantitated from TA sections by scanning four entire cross sections from each of the mice for each experimental group.
# [4] = tested on: human DMD exon 50 GFP based reporter; assay: Secondary screening, 12 or 16 point titrations on the DMD exon 50 reporter cell line with or without AON6; assay type: cell-based, mouse
# Method: 12 or 16 point titrations of compounds were added to the Ex50-GFP and C2C12 myoblasts either with or without AON6.
# A stable clone was generated from C2C12 cells transfected with a human exon 50 DMD GFP reporter (ex50GFP) that has been previously described. Ex50GFP reporter myoblasts were seeded into uncoated 384 well plates and were incubated for 4 hours either with or without 300 nM of 2′-O-methyl phosphorothioate AON6 [5′[…] 3′ (SEQ ID NO:1)] targeting the human exon 50 splice donor site. Cells were transfected with AON6 using the FUGENE (Roche) transfection reagent per manufacturer's instructions. Following AON6 incubation, each component of the BioMol library (n=503) was screened at 10 uM concentration with a final concentration of the DMSO carrier being 1%. Forty-eight hours later fluorescence was measured using the MicroXpress high content imager and analyzed using MetaXpress. Immediately preceding imaging, DNA was stained with Hoescht for 30 min. The BioMol screen without AO (−AO) was performed in 6 replicates, and the with AO (+AO) screen was performed in 3 replicates. For the screen analysis raw fluorescence values were normalized to carrier controls present on each plate by subtracting the values. Negative fluorescence values were set to 0. The data from each compound were averaged from all replicates. For secondary screening by 12 or 16 point dose response, Ex50GFP myoblasts or C2C12 cells without the reporter were seeded on uncoated 384 well plates. A sub-optimal dose of AON6 targeting DMD exon 50 was added for 4 hours. Following the 4 hour incubation, a compound dilution was added (beginning at 100 uM with 1:1 dilutions) for either 12 or 16 points. After a 48 hour incubation with compounds, DNA was stained with Hoescht, and fluorescence determined using the high content imager and analyzed with MetaXpress.
# [5] = tested on: human DMD exon 50 GFP based reporter; assay: BioMol high throughput screen in Ex50-GFP reporter C2C12 myoblasts, with or without AON6; assay type: cell-based, mouse
# [6] = 10 mg/kg PMOE23 IV with dantrolene 10 mg/kg/day IP
structure (smiles),measurement,setting,value
O=C1CN(/N=C/c2ccc(-c3ccc([N+](=O)[O-])cc3)o2)C(=O)N1 [DANTROLENE],CK values,[1],lower CK values
same,"Dmd exon 23 mRNA skipping, aggregate analysis of all skeletal muscle groups (excluding heart)",[2]; [6],significantly increased
same,"Dmd exon 23 skipping in the gastrocnemius, TA, diaphragm and quadriceps",[2]; [6],enhanced skipping
same,Dmd exon 23 skipping in the triceps,[2]; [6],Enhancement was not apparent
same,Dmd exon 23 skipping in heart muscle,[2]; any experimental condition,No appreciable skipping
same,"mean fold increase in dystrophin protein expression, PMOE23 with dantrolene relative to PMOE23 with vehicle","[2]; pooled Western blot densitometry across quadricep, gastrocnemius, TA and diaphragm",3.1 fold
same,induced levels of dystrophin (Western blot),[3]; dantrolene 10 or 20 mg/kg/day IP with 2 ug PMOE23 IM,about 20 % of C57 dystrophin levels
same,dystrophin protein rescue with and without PMOE23,"[3]; dantrolene IP, immunofluorescence and Western blot",only rescued protein expression in the presence of PMOE23
same,increase in fluorescence in the Ex50-GFP+AO compared to the reporter line without AO,"[4]; 12 or 16 point titrations from 100 uM, positivity criterion (FIG. 5 legend: >10%)",10%
same,dose response in Ex50-GFP reporter,[4]; 12 or 16 point titrations with AON6,evidence of a dose response
same,Average Fluorescence (n = 3),[5],18.20
same,Fluorescence Plate 1,[5],16.32
same,Fluorescence Plate 2,[5],11.76
same,Fluorescence Plate 3,[5],26.51
same,activity in the −AO screen,[5],indistinguishable from the DMSO controls
same,exon skipping activity in the screen +AO,[5],enhanced exon skipping activity
